Test results published in US12077503B2, “Substituted cyclic amides and their use as herbicides” (FMC CORPORATION, priority 2015, dated 2024).

Tested on: morningglory (Ipomoea spp.)
Assay: Test A postemergence
Type: in vivo
Details: Ipomoea, post-emergence, 240 h, Postemergence; for pest or weed control at 125 g/ha: 125 g ai/ha, visual rating about 10 d after treatment, read-out: Morningglory plant response rating (0 to 100 scale); for pest or weed control at 500 g/ha: 500 g ai/ha, visual injury, 0 to 100 scale (0 no effect, 100 complete control), approx. 10 d, read-out: Plant response rating, Morningglory
Outline: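 Greenhouse, ~10 d after spray; visual injury vs untreated controls, 0 = no effect, 100 = complete control. Preemergence: directed soil spray over planted seeds. Postemergence: plants 2–10 cm, 1–2 leaf stage. Loam/sand blend. Compound in non-phytotoxic solvent with surfactant.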

Row | SMILES | pest or weed control at 125 g/ha | pest or weed control at 500 g/ha
1 | N#Cc1ccc(NC(=O)C2C(=O)NCC2c2ccccc2)cc1 (centres unmarked) [Compound 1355] | 0% | 0%
2 | O=C1NCC(c2ccccc2)C1C(=O)Nc1cccnc1 (centres unmarked) [Compound 1356] | 0% | 0%
3 | O=C1NCC(c2ccccc2)C1C(=O)Nc1ccccc1Oc1ccccc1 (centres unmarked) [Compound 1357] | 0% | 0%
4 | O=C1NCC(c2ccccc2)C1C(=O)Nc1ccccc1 (centres unmarked) [Compound 1358] | 0% | 0%
